Data taken from PMC9944328 (Nature Communications, 2023).
Where two headings read alike, the source gives them in different places.

Test system: SSTR2 mutants
Assay: NanoBiT β-arrestin 1 recruitment assay, HEK293 (SSTR2 mutants);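 on Top: percent of maximal wild-type response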
Assay type: cell-based, human
Set-up: Bottom / Span / Bottom (best-fit) / Span (best-fit) / Best-fit values Bottom / Best-fit values Span / Bottom (best-fit value) / Span (best-fit value):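 percent of maximal wild-type response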
Conditions: for EC50: read-out: EC50
Description: The NanoBiT β-arrestin 1 recruitment assays were carried out according to the method described previously. […] Human full-length SSTR wild-type and mutant vectors were C-terminally fused with a 15-amino acid flexible linker and the small fragment (SmBiT). HEK293 cells were seeded into six-well microplates at a density of 1.0 × 10^6 cells/well and cultured for 24 h at 37 °C with 5% CO2. After that, cells were co-transfected with pcDNA3.1+ vectors encoding SSTR wild-type or mutants and human β-arrestin 1. After transfecting for 24 h, the transfected cells were suspended and seeded into white 96-well plates, and then cultured at 37 °C overnight. After that the medium in each well was exchanged for 90 μl of 0.01% bovine serum albumin containing 20 μl of 50 μM coelenterazine h (Carbosynth) diluted in the HBSS assay buffer and incubated for 40 min at room temperature. Then, ligands diluted in the assay buffer was added to each well and the luminescence intensity was measured using the Synergy H1 microplate reader and detected at room temperature in a time period. All data presented are means of at least three independent experiments.

[1] = best-fit value, T194A-1 (run 1)
[2] = best-fit value, T194A-2 (run 2)
[3] = best-fit value, T194A-3 (run 3)
[4] = best-fit value, V103A-1 (run 1)
[5] = best-fit value, V103A-2 (run 2)
[6] = best-fit value, V103A-3 (run 3)

Q: Which LogEC50 (best-fit value, L99A-3 (run 3)) does the source give for `C[C@@H](O)[C@@H]1NC(=O)[C@H](CCCCN)NC(=O)[C@@H](Cc2c[nH]c3ccccc23)NC(=O)[C@H](Cc2ccccc2)NC(=O)[C@@H](NC(=O)[C@H](N)Cc2ccccc2)CSSC[C@@H](C(=O)N[C@H](CO)[C@@H](C)O)NC1=O` [octreotide] here?
A: Its LogEC50 is -6.902.

Q: And the Span (best-fit value, L99A-3 (run 3))?
A: Its Span is 131.2.

Q: And the Top (best-fit value, L99A-3 (run 3))?
A: The Top was 128.3.

Q: What about the LogEC50 [1] of the same compound?
A: The LogEC50 was -7.278.

Q: What about the Span [1] of the same compound?
A: The Span was 56.43.

Q: And the EC50 [1]?
A: Its EC50 is 52.8 nM.

Q: And the LogEC50 [2]?
A: Its LogEC50 is -7.381.

Q: And the Span [2]?
A: Its Span is 55.9.

Q: What about the EC50 [2] of the same compound?
A: Its EC50 is 41.6 nM.

Q: And the LogEC50 [3]?
A: The LogEC50 was -7.29.

Q: What about the Span [3] of the same compound?
A: Its Span is 56.81.

Q: And the EC50 [3]?
A: Its EC50 is 51.3 nM.

Q: And the Bottom [4]?
A: Its Bottom is -1.867.

Q: And the LogEC50 [4]?
A: The LogEC50 was -7.141.

Q: And the Span [4]?
A: The Span was 86.59.

Q: What about the Top [4] of the same compound?
A: Its Top is 84.73.

Q: And the EC50 [4]?
A: The EC50 was 72.2 nM.

Q: And the Bottom [5]?
A: The Bottom was -2.214.

Q: What about the LogEC50 [5] of the same compound?
A: Its LogEC50 is -7.263.

Q: What about the Span [5] of the same compound?
A: Its Span is 87.54.

Q: And the Top [5]?
A: The Top was 85.33.

Q: What about the EC50 [5] of the same compound?
A: Its EC50 is 54.6 nM.

Q: What about the Bottom [6] of the same compound?
A: The Bottom was -2.646.

Q: And the LogEC50 [6]?
A: The LogEC50 was -7.193.

Q: And the Span [6]?
A: The Span was 87.08.

Q: What about the Top [6] of the same compound?
A: The Top was 84.44.

Q: What about the EC50 [6] of the same compound?
A: The EC50 was 64.1 nM.

Q: What about the Bottom (best-fit value, Y50A-1 (run 1)) of the same compound?
A: Its Bottom is -0.1631.

Q: What about the LogEC50 (best-fit value, Y50A-1 (run 1)) of the same compound?
A: Its LogEC50 is -8.742.

Q: What about the Span (best-fit value, Y50A-1 (run 1)) of the same compound?
A: Its Span is 56.29.

Q: What about the Top (best-fit value, Y50A-1 (run 1)) of the same compound?
A: Its Top is 56.13.

Q: What about the EC50 (best-fit value, Y50A-1 (run 1)) of the same compound?
A: Its EC50 is 1.81 nM.

Q: And the Bottom (best-fit value, Y50A-2 (run 2))?
A: Its Bottom is -2.513.

Q: What about the LogEC50 (best-fit value, Y50A-2 (run 2)) of the same compound?
A: The LogEC50 was -7.952.

Q: What about the Span (best-fit value, Y50A-2 (run 2)) of the same compound?
A: Its Span is 74.92.

Q: And the Top (best-fit value, Y50A-2 (run 2))?
A: The Top was 72.41.

Q: What about the EC50 (best-fit value, Y50A-2 (run 2)) of the same compound?
A: Its EC50 is 11.2 nM.

Q: What about the Bottom (best-fit value, Y50A-3 (run 3)) of the same compound?
A: Its Bottom is -0.965.

Q: What about the LogEC50 (best-fit value, Y50A-3 (run 3)) of the same compound?
A: Its LogEC50 is -8.796.

Q: What about the Span (best-fit value, Y50A-3 (run 3)) of the same compound?
A: Its Span is 58.15.

Q: And the Top (best-fit value, Y50A-3 (run 3))?
A: Its Top is 57.19.

Q: What about the EC50 (best-fit value, Y50A-3 (run 3)) of the same compound?
A: The EC50 was 1.6 nM.

Q: And the Bottom (best-fit, I284A-1)?
A: Its Bottom is 2.896.

Q: And the LogEC50 (best-fit, I284A-1)?
A: Its LogEC50 is -7.134.

Q: What about the Span (best-fit, I284A-1) of the same compound?
A: Its Span is 74.77.

Q: And the Top (best-fit, I284A-1)?
A: Its Top is 77.67.

Q: What about the EC50 (best-fit, I284A-1) of the same compound?
A: The EC50 was 73.4 nM.

Q: What about the Bottom (best-fit, I284A-2) of the same compound?
A: Its Bottom is -1.923.

Q: What about the LogEC50 (best-fit, I284A-2) of the same compound?
A: The LogEC50 was -7.815.

Q: And the Span (best-fit, I284A-2)?
A: The Span was 108.7.

Q: And the Top (best-fit, I284A-2)?
A: Its Top is 106.8.

Q: And the EC50 (best-fit, I284A-2)?
A: Its EC50 is 15.3 nM.

Q: And the Bottom (best-fit, I284A-3)?
A: The Bottom was 2.808.

Q: What about the LogEC50 (best-fit, I284A-3) of the same compound?
A: Its LogEC50 is -7.106.

Q: What about the Span (best-fit, I284A-3) of the same compound?
A: The Span was 79.8.

Q: And the Top (best-fit, I284A-3)?
A: The Top was 82.61.

Q: What about the EC50 (best-fit, I284A-3) of the same compound?
A: The EC50 was 78.4 nM.

Q: And the LogEC50 (best-fit, P286A-1)?
A: The LogEC50 was -8.053.

Q: What about the Span (best-fit, P286A-1) of the same compound?
A: The Span was 62.29.

Q: What about the Top (best-fit, P286A-1) of the same compound?
A: Its Top is 66.68.

Q: And the EC50 (best-fit, P286A-1)?
A: Its EC50 is 8.86 nM.

Q: What about the Bottom (best-fit, P286A-2) of the same compound?
A: The Bottom was 2.819.

Q: What about the LogEC50 (best-fit, P286A-2) of the same compound?
A: The LogEC50 was -8.168.

Q: What about the Span (best-fit, P286A-2) of the same compound?
A: The Span was 59.43.

Q: What about the Top (best-fit, P286A-2) of the same compound?
A: The Top was 62.25.

Q: And the EC50 (best-fit, P286A-2)?
A: Its EC50 is 6.79 nM.

Q: What about the Bottom (best-fit, P286A-3) of the same compound?
A: Its Bottom is 4.198.

Q: And the LogEC50 (best-fit, P286A-3)?
A: Its LogEC50 is -8.213.

Q: What about the Span (best-fit, P286A-3) of the same compound?
A: Its Span is 84.87.

Q: What about the Top (best-fit, P286A-3) of the same compound?
A: The Top was 89.07.

Q: What about the EC50 (best-fit, P286A-3) of the same compound?
A: The EC50 was 6.12 nM.

Q: What about the Bottom (best-fit, S285A-1) of the same compound?
A: The Bottom was 2.2.

Q: And the LogEC50 (best-fit, S285A-1)?
A: Its LogEC50 is -9.537.

Q: And the Span (best-fit, S285A-1)?
A: The Span was 70.

Q: And the Top (best-fit, S285A-1)?
A: Its Top is 72.2.

Q: What about the EC50 (best-fit, S285A-1) of the same compound?
A: Its EC50 is 0.29 nM.

Q: And the Bottom (best-fit, S285A-2)?
A: Its Bottom is 3.756.

Q: And the LogEC50 (best-fit, S285A-2)?
A: The LogEC50 was -9.426.

Q: What about the Span (best-fit, S285A-2) of the same compound?
A: The Span was 71.47.

Q: And the Top (best-fit, S285A-2)?
A: Its Top is 75.22.

Q: And the EC50 (best-fit, S285A-2)?
A: Its EC50 is 0.375 nM.
